From patent US12552748B2, “Pyridine (thio)amides as fungicidal compounds” (Bayer Aktiengesellschaft, priority 2020, dated 2026) come the findings set out here.

The nature of this series: physchem. It counts as physicochemical. Here is the method:
Measurement of Log P values as provided herein was performed according to EEC directive 79/831 Annex V.A8 by HPLC (High Performance Liquid Chromatography) on reversed phase columns with the following methods: […] If more than one Log P value is available within the same method, all the values are given and separated by “+”. Calibration was done with straight-chain alkan2-ones (with 3 to 16 carbon atoms) with known Log P values (measurement of Log P values using retention times with linear interpolation between successive alkanones). Lambda-max-values were determined using UV-spectra from 200 nm to 400 nm and the peak values of the chromatographic signals

Marks after values point to notes of the source that are not given here.

`C=C(OCC)c1cc(C(=O)NCCc2ccc(C)cc2C)c(Oc2cccc(C(F)(F)F)c2)cn1` [Compound I-051]: the LogP is 4.84^[a].

For `Cc1ccc(C(F)(F)CNC(=O)c2cc(C)ncc2Oc2cccc(Cl)c2)c(C)c1` [Compound I-058], the LogP is 4.13^[a].

As for `Cc1ccc(CCNC(=O)c2cc(C#N)ncc2Oc2cccc(C(F)(F)F)c2)c(C)c1` [Compound I-059], the LogP is 4.39^[a].

Regarding `Cc1ccc(C(F)(F)CNC(=O)c2cc(Cl)ncc2Oc2cccc(C3CC3)c2F)c(C)c1` [Compound I-061], the LogP is 5.11^[a].

Regarding `Cc1ccc(CCNC(=O)c2cc(Cl)ncc2Oc2cccc(C3CC3)c2F)c(C)c1` [Compound I-062], the LogP was 5.11^[a].

Turning to `Cc1ccc(C(F)(F)CNC(=O)c2cc(Cl)ncc2Oc2cccc(C3CC3)c2)c(C)c1` [Compound I-065], the LogP is 5.17^[a].

With `O=C(NCC(F)(F)c1ccc(Br)cc1Cl)c1cc(Cl)ncc1Oc1cccc(C2CC2)c1` [Compound I-066], the LogP was 5.36^[a].

Take `Cc1ccc(C(F)(F)CNC(=O)c2cc(C)ncc2Oc2cccc(Cl)c2)c(Cl)c1` [Compound I-067]: the LogP was 4.06^[a].

As for `Cc1cccc(Oc2cnc(C)cc2C(=O)NCC(F)(F)c2ccc(C)cc2Cl)c1` [Compound I-068], the LogP is 4.06^[a].

For the molecule `Cc1ccc(C(F)(F)CNC(=O)c2cc(C)ncc2Oc2cccc(C3CC3)c2F)c(C)c1` [Compound I-069], the LogP is 4.46^[a].

As to `Cc1ccc(C(F)(F)CNC(=O)c2cc(C)ncc2Oc2cccc(C3CC3)c2)c(C)c1` [Compound I-070], the LogP was 4.44^[a].

With `Cc1ccc(C(F)(F)CNC(=O)c2cc(C)ncc2Oc2cccc(C3CC3)c2)c(Cl)c1` [Compound I-071], the LogP was 4.39^[a].

In the case of `C=Cc1cc(C(=O)NCC(F)(F)c2ccc(C)cc2C)c(Oc2cccc(C3CC3)c2)cn1` [Compound I-072], the LogP was 5.05^[a].

Take `O=C(NCC(F)(F)c1ccc(C2CC2)cc1Cl)c1cc(Cl)ncc1Oc1cccc(C2CC2)c1F` [Compound I-075]: the LogP was 5.31^[a].

Regarding `Cc1ccc(CCNC(=O)c2cc(N3CCCC3)ncc2Oc2cccc(C(F)(F)F)c2)c(C)c1` [Compound I-088], the LogP is 4.26^[a].

As for `Cc1ccc(C(F)(F)CNC(=O)c2cc(C)ncc2Oc2cccc(C3CC3)c2F)c(Cl)c1` [Compound I-089], the LogP was 4.47^[a].

As for `Cc1ccc(C(F)(F)CNC(=O)c2cc(Cl)nc(F)c2Oc2cccc(C(F)(F)F)c2)c(C)c1` [Compound I-092], the LogP is 5.04^[a].

Take `CO/N=C(\C)c1cc(C(=O)NCCc2ccc(C)cc2C)c(Oc2cccc(C(F)(F)F)c2)cn1` [Compound I-093]: the LogP is 5.36^[a].

On to `CO/N=C(/C)c1cc(C(=O)NCCc2ccc(C)cc2C)c(Oc2cccc(C(F)(F)F)c2)cn1` [Compound I-094], for which the LogP was 4.85^[a].

On to `Cc1ccc(CCNC(=O)c2cc(Cl)ncc2Oc2cccc(C(F)(F)F)c2)o1` [Compound I-095], for which the LogP was 4.05^[a].

With `Cc1cnn(CCNC(=O)c2cc(Cl)ncc2Oc2cccc(C(F)(F)F)c2)c1` [Compound I-096], the LogP is 3.14^[a].

In the case of `O=C(NCCc1cccs1)c1cc(Cl)ncc1Oc1cccc(C(F)(F)F)c1` [Compound I-097], the LogP was 3.98^[a].

Regarding `O=C(NCCn1cc(Cl)cn1)c1cc(Cl)ncc1Oc1cccc(C(F)(F)F)c1` [Compound I-098], the LogP was 3.40^[a].

Turning to `O=C(NCCc1ncc(Cl)cn1)c1cc(Cl)ncc1Oc1cccc(C(F)(F)F)c1` [Compound I-099], the LogP is 3.34^[a].

With `O=C(NCCc1ccc2[nH]ccc2c1)c1cc(Cl)ncc1Oc1cccc(C(F)(F)F)c1` [Compound I-100], the LogP is 3.71^[a].

As for `O=C(NCCc1cccc2[nH]ccc12)c1cc(Cl)ncc1Oc1cccc(C(F)(F)F)c1` [Compound I-101], the LogP was 3.71^[a].

Take `CC(NC(=O)c1cc(Cl)ncc1Oc1cccc(C(F)(F)F)c1)c1ccc(Cl)s1` (centres unmarked) [Compound I-103]: the LogP is 4.47^[a].

Consider `O=C(NCCc1ccc2c(c1)CCO2)c1cc(Cl)ncc1Oc1cccc(C(F)(F)F)c1` [Compound I-104], for which the LogP was 3.98^[a].

Turning to `O=C(NCCc1ccc2c(c1)OCCO2)c1cc(Cl)ncc1Oc1cccc(C(F)(F)F)c1` [Compound I-105], the LogP is 3.84^[a].

Turning to `CC(C)Oc1ccc(CCNC(=O)c2cc(Cl)ncc2Oc2cccc(C(F)(F)F)c2)cn1` [Compound I-106], the LogP is 4.08^[a].

Regarding `O=C(NCCc1ccc(C(F)(F)F)cn1)c1cc(Cl)ncc1Oc1cccc(C(F)(F)F)c1` [Compound I-107], the LogP was 3.91^[a].

With `O=C(NCCc1ccc2c(c1)OCO2)c1cc(Cl)ncc1Oc1cccc(C(F)(F)F)c1` [Compound I-108], the LogP was 3.87^[a].

`O=C(NCCc1cnc(C(F)(F)F)nc1)c1cc(Cl)ncc1Oc1cccc(C(F)(F)F)c1` [Compound I-110]: the LogP was 3.57^[a].

As to `Cc1ccc(CCNC(=O)c2cc(Cl)ncc2Oc2ccc(C(F)(F)F)c(Cl)c2)c(C)c1` [Compound I-111], the LogP was 4.48^[a].

Consider `Cc1ccc(CCNC(=O)c2cc(C(C)O)ncc2Oc2cccc(C(F)(F)F)c2)c(C)c1` (centres unmarked) [Compound I-112], for which the LogP is 3.67^[a].

With `Cc1ccc(CCNC(=O)c2cc(C(C)F)ncc2Oc2cccc(C(F)(F)F)c2)c(C)c1` (centres unmarked) [Compound I-114], the LogP is 4.62^[a].

On to `Cc1ccc(CCNC(=O)c2cc(C(F)(F)F)ncc2Oc2cccc(C3CC3)c2F)c(C)c1` [Compound I-116], for which the LogP was 5.38^[a].

As to `Cn1cc(-c2ccc(C(F)(F)CNC(=O)c3cc(Cl)ncc3Oc3cccc(C(F)F)c3)c(Cl)c2)cn1` [Compound I-117], the LogP is 3.64^[a].

`COCCc1cc(C(=O)NCCc2ccc(C)cc2C)c(Oc2cccc(C(F)(F)F)c2)cn1` [Compound I-118]: the LogP is 4.16^[a].

On to `CC(=O)c1ccc(C(F)(F)CNC(=O)c2cc(Cl)ncc2Oc2cccc(C(F)F)c2)c(Cl)c1` [Compound I-119], for which the LogP is 3.81^[a].

Turning to `CCOC(=O)c1ccc(C(F)(F)CNC(=O)c2cc(Cl)ncc2Oc2cccc(C(F)F)c2)c(Cl)c1` [Compound I-120], the LogP is 4.47^[a].

Take `Cc1ccc(CCNC(=O)c2cc(C3CCOC3)ncc2Oc2cccc(C(F)(F)F)c2)c(C)c1` (centres unmarked) [Compound I-121]: the LogP was 4.30^[a].

For the molecule `Cc1ccc(CCNC(=O)c2cc(C3CCCC3)ncc2Oc2cccc(C(F)(F)F)c2)c(C)c1` [Compound I-122], the LogP was 5.57^[a].

With `C=Cc1ccc(C(F)(F)CNC(=O)c2cc(Cl)ncc2Oc2cccc(C(F)F)c2)c(Cl)c1` [Compound I-123], the LogP is 4.47^[a].

For `Cc1ccc(CCNC(=O)c2cc(Cl)ncc2Oc2cccc(C#N)c2F)c(C)c1` [Compound I-126], the LogP was 3.91^[a].

`Cc1ccc(CCNC(=O)c2cc(Cl)ncc2Oc2cccc(C=O)c2F)c(C)c1` [Compound I-127]: the LogP was 3.85^[a].

`Cc1ccc(CCNC(=O)c2cc(Cl)ncc2Oc2cccc(Cl)c2F)c(C)c1` [Compound I-128]: the LogP was 4.71^[a].

Regarding `C#Cc1cccc(Oc2cnc(Cl)cc2C(=O)NCCc2ccc(C)cc2C)c1` [Compound I-129], the LogP was 4.45^[a].

Regarding `Cc1ccc(CCNC(=O)c2cc(Cl)ncc2Oc2cccc([N+](=O)[O-])c2)c(C)c1` [Compound I-130], the LogP was 4.08^[a].

On to `Cc1ccc(CCNC(=O)c2cc(Cl)ncc2Oc2cccc(C)c2F)c(C)c1` [Compound I-131], for which the LogP is 4.76^[a].

Take `COc1cccc(Oc2cnc(Cl)cc2C(=O)NCCc2ccc(C)cc2C)c1F` [Compound I-132]: the LogP was 4.26^[a].

`Cc1ccc(CCNC(=O)c2cc(Cl)ncc2Oc2ccccc2)c(C)c1` [Compound I-133]: the LogP was 4.41^[a].

Turning to `Cc1ccc(CCNC(=O)c2cc(Cl)ncc2Oc2cccc(Br)c2F)c(C)c1` [Compound I-134], the LogP is 4.78^[a].

For `CCc1cccc(Oc2cnc(Cl)cc2C(=O)NCCc2ccc(C)cc2C)c1` [Compound I-135], the LogP was 5.23^[a].

Turning to `Cc1ccc(CCNC(=O)c2cc(Cl)ncc2Oc2cccc(OC(F)F)c2)c(C)c1` [Compound I-136], the LogP was 4.43^[a].

With `Cc1ccc(CCNC(=O)c2cc(Cl)ncc2Oc2cccc(Br)c2)c(C)c1` [Compound I-137], the LogP was 4.86^[a].

With `Cc1ccc(CCNC(=O)c2cc(Cl)ncc2Oc2cccc(C3COC3)c2)c(C)c1` [Compound I-139], the LogP was 3.88^[a].

In the case of `Cc1ccc(CCNC(=O)c2cc(Cl)ncc2Oc2cccc(I)c2)c(C)c1` [Compound I-141], the LogP was 5.01^[a].

For the molecule `C#Cc1ccc(C(F)(F)CNC(=O)c2cc(Cl)ncc2Oc2cccc(C(F)F)c2)c(Cl)c1` [Compound I-143], the LogP is 4.32^[a].

`Cc1cccc(Oc2cnc(Cl)cc2C(=O)NCC(F)(F)c2ccc(Br)cc2Cl)c1` [Compound I-145]: the LogP was 5.08^[a].

As for `C=Cc1c(Cl)ncc(Oc2cccc(C(F)(F)F)c2)c1C(=O)NCC(F)(F)c1ccc(C)cc1C` [Compound I-146], the LogP was 4.93^[a].

Consider `COC(=O)c1cccc(Oc2cnc(Cl)cc2C(=O)NCCc2ccc(C)cc2C)c1` [Compound I-147], for which the LogP was 4.20^[a].

`Cc1ccc(C(F)(F)CNC(=O)c2c(Oc3cccc(C(F)(F)F)c3)cnc(Cl)c2C2CC2)c(C)c1` [Compound I-149]: the LogP was 5.04^[a].

Take `Cc1ccc(CCNC(=O)c2cc(Cl)ncc2Oc2cccc3c2CCC3)c(C)c1` [Compound I-150]: the LogP is 5.45^[a].

As for `Cc1ccc(CCNC(=O)c2cc(Cl)ncc2Oc2cccc(-c3ccccc3)c2)c(C)c1` [Compound I-151], the LogP is 5.44^[a].
